Test results reported in patent US20230284620A1, “MIXTURES OF PYRIDAZINES AS HERBICIDAL COMPOSITIONS” (SYNGENTA CROP PROTECTION AG, priority 2020, published 2023).
Several values for one entry are separate records, joined by “and”; a condition that tells them apart may be missing. Equal values may be shown once.

Key:
Assay in all cases: Post-emergence glasshouse herbicide test, visual phytotoxicity
Format in all cases: in vivo
Settings in all cases: 13 days
[1] = system: Chenopodium album (CHEAL)
Experimental: (§1) Seeds of Setaria faberi (SETFA), Echinochloa crus-galli (ECHCG), Digitaria sanguinalis (DIGSA), Lolium perenne (LOLPE), Alopecurus myosuroides (ALOMY), Chenopodium album (CHEAL), Ipomoea hederacea (IPOHE), Stellaria media (STEME), Abutilon threophrasti (ABUTH) and Amaranthus retroflexus (AMARE) were sown in standard sterilised soil in pots. After cultivation for 8 days under controlled conditions in a glasshouse (at 24/19° C., day/night; 16 hours light; no humidity control), the plants were sprayed at 500 l/Ha with an aqueous spray solution derived from the formulation of the technical active ingredients in a small amount of acetone and a solvent and emulsifier mixture referred to as IF50 (11.12% Emulsogen EL360 TM+44.44% N-methylpyrrolidone+44.44% Dowanol DPM glycol ether), to create a 50 g/l solution which was then diluted using 0.2% Genapol X080 (CAS Number: 9043-30-5) as diluent to give the desired final dose of test compound.
(§2) Where active ingredients were applied as mixtures, aqueous spray solutions were prepared as above, containing both active ingredients.
(§3) The test plants were then grown under controlled conditions in a glasshouse (at 24/18° C., day/night; 15 hours light; 50% humidity) and watered twice daily. After 13 days, the test was evaluated visually for percentage phytotoxicity to the plants (where 100=total damage to plant; 0=no damage to plant; and NC=not captured) when compared to control untreated plants. Two to four replicates were applied for each treatment in a randomised block test design.
(§4) 22., E=X+Y−(X*Y/100), where • X=average percent phytotoxicity of herbicide A when applied at a certain rate • Y=average percent phytotoxicity using herbicide B when applied at a certain rate • E=the expected effect of the mixture of herbicides A and B as calculated from the Colby formula.

[2] = system: Amaranthus retroflexus (AMARE)
Experimental: as §1, §2, §3, §4

[3] = system: Alopecurus myosuroides (ALOMY)
Experimental: as §1, §2, §3, §4

Stellaria media (STEME) = system: Stellaria media (STEME)
Experimental: as §1, §2, §3, §4

[4] = system: Digitaria sanguinalis (DIGSA)
Experimental: as §1, §2, §3, §4

Setaria faberi (SETFA) = system: Setaria faberi (SETFA)
Experimental: as §1, §2, §3, §4

[5] = system: Abutilon threophrasti (ABUTH)
Experimental: as §1, §2, §3, §4

[6] = system: Echinochloa crus-galli (ECHCG)
Experimental: as §1, §2, §3, §4

[7] = system: Ipomoea hederacea (IPOHE)
Experimental: as §1, §2, §3, §4

Lolium perenne (LOLPE) = system: Lolium perenne (LOLPE)
Experimental: as §1, §2, §3, §4

CS(=O)(=O)c1ccc(C(=O)C2C(=O)CCCC2=O)c(Cl)c1OCCC1OCCO1 [B-II]
percentage phytotoxicity CHEAL ([1]; 0.625 g/ha): 5% | percentage phytotoxicity CHEAL ([1]; 1.25 g/ha): 15% | percentage phytotoxicity CHEAL ([1]; 2.5 g/ha): 30% | percentage phytotoxicity CHEAL ([1]; 5 g/ha): 55% | percentage phytotoxicity CHEAL ([1]; 10 g/ha): 65% | percentage phytotoxicity AMARE ([2]; 0.625 g/ha): 0% | percentage phytotoxicity AMARE ([2]; 1.25 g/ha): 13% | percentage phytotoxicity AMARE ([2]; 2.5 g/ha): 25% | percentage phytotoxicity AMARE ([2]; 5 g/ha): 53% | percentage phytotoxicity AMARE ([2]; 10 g/ha): 58% | percentage phytotoxicity ALOMY ([3]; 0.625 g/ha): 0% | percentage phytotoxicity ALOMY ([3]; 1.25 g/ha): 3% | percentage phytotoxicity ALOMY ([3]; 2.5 g/ha): 0% | percentage phytotoxicity ALOMY ([3]; 5 g/ha): 5% | percentage phytotoxicity ALOMY ([3]; 10 g/ha): 0% | percentage phytotoxicity STEME (Stellaria media (STEME); 0.625 g/ha): 0% | percentage phytotoxicity STEME (Stellaria media (STEME); 1.25 g/ha): 10% | percentage phytotoxicity STEME (Stellaria media (STEME); 2.5 g/ha): 28% | percentage phytotoxicity STEME (Stellaria media (STEME); 5 g/ha): 53% | percentage phytotoxicity STEME (Stellaria media (STEME); 10 g/ha): 70% | percentage phytotoxicity DIGSA ([4]; 0.625 g/ha): 0% | percentage phytotoxicity DIGSA ([4]; 1.25 g/ha): 5% | percentage phytotoxicity DIGSA ([4]; 2.5 g/ha): 0% | percentage phytotoxicity DIGSA ([4]; 5 g/ha): 10% | percentage phytotoxicity DIGSA ([4]; 10 g/ha): 3% | percentage phytotoxicity SETFA (Setaria faberi (SETFA); 0.625 g/ha): 0% | percentage phytotoxicity SETFA (Setaria faberi (SETFA); 1.25 g/ha): 3% | percentage phytotoxicity SETFA (Setaria faberi (SETFA); 2.5 g/ha): 0% | percentage phytotoxicity SETFA (Setaria faberi (SETFA); 5 g/ha): 5% | percentage phytotoxicity SETFA (Setaria faberi (SETFA); 10 g/ha): 0% | percentage phytotoxicity ABUTH ([5]; 0.625 g/ha): 0% | percentage phytotoxicity ABUTH ([5]; 1.25 g/ha): 40% | percentage phytotoxicity ABUTH ([5]; 2.5 g/ha): 43% | percentage phytotoxicity ABUTH ([5]; 5 g/ha): 58% | percentage phytotoxicity ABUTH ([5]; 10 g/ha): 70% | percentage phytotoxicity ECHCG ([6]; 0.625 g/ha): 0% | percentage phytotoxicity ECHCG ([6]; 1.25 g/ha): 5% | percentage phytotoxicity ECHCG ([6]; 2.5 g/ha): 0% | percentage phytotoxicity ECHCG ([6]; 5 g/ha): 8% | percentage phytotoxicity ECHCG ([6]; 10 g/ha): 5% | percentage phytotoxicity IPOHE ([7]; 0.625 g/ha): 5% | percentage phytotoxicity IPOHE ([7]; 1.25 g/ha): 15% | percentage phytotoxicity IPOHE ([7]; 2.5 g/ha): 20% | percentage phytotoxicity IPOHE ([7]; 5 g/ha): 45% | percentage phytotoxicity IPOHE ([7]; 10 g/ha): 55% | percentage phytotoxicity LOLPE (Lolium perenne (LOLPE); 0.625 g/ha): 0% | percentage phytotoxicity LOLPE (Lolium perenne (LOLPE); 1.25 g/ha): 5% | percentage phytotoxicity LOLPE (Lolium perenne (LOLPE); 2.5 g/ha): 0% | percentage phytotoxicity LOLPE (Lolium perenne (LOLPE); 5 g/ha): 5% | percentage phytotoxicity LOLPE (Lolium perenne (LOLPE); 10 g/ha): 0%

Cc1ccc2ccc(C)c(C3C(=O)C(Cl)=NN(C)C3=O)c2c1 (centres unmarked) [A-I]
percentage phytotoxicity CHEAL ([1]; 0.625 g/ha): 6% | percentage phytotoxicity CHEAL ([1]; 2.5 g/ha): 13% and 16% | percentage phytotoxicity CHEAL ([1]; 5 g/ha): 28% and 26% | percentage phytotoxicity AMARE ([2]; 0.625 g/ha): 14% | percentage phytotoxicity AMARE ([2]; 1.25 g/ha): 44% | percentage phytotoxicity AMARE ([2]; 2.5 g/ha): 70% | percentage phytotoxicity AMARE ([2]; 5 g/ha): 74% | percentage phytotoxicity AMARE ([2]; 10 g/ha): 73% | percentage phytotoxicity ALOMY ([3]; 0.625 g/ha): 0% | percentage phytotoxicity ALOMY ([3]; 1.25 g/ha): 0% | percentage phytotoxicity ALOMY ([3]; 2.5 g/ha): 0% | percentage phytotoxicity ALOMY ([3]; 5 g/ha): 9% and 0% | percentage phytotoxicity ALOMY ([3]; 10 g/ha): 21% | percentage phytotoxicity STEME (Stellaria media (STEME); 0.625 g/ha): 34% | percentage phytotoxicity STEME (Stellaria media (STEME); 1.25 g/ha): 64% and 58% | percentage phytotoxicity STEME (Stellaria media (STEME); 2.5 g/ha): 66% | percentage phytotoxicity STEME (Stellaria media (STEME); 5 g/ha): 79% | percentage phytotoxicity STEME (Stellaria media (STEME); 10 g/ha): 84% | percentage phytotoxicity DIGSA ([4]; 0.625 g/ha): 0% and 1% | percentage phytotoxicity DIGSA ([4]; 1.25 g/ha): 0% | percentage phytotoxicity DIGSA ([4]; 2.5 g/ha): 3% and 0% | percentage phytotoxicity DIGSA ([4]; 5 g/ha): 22% and 21% | percentage phytotoxicity SETFA (Setaria faberi (SETFA); 0.625 g/ha): 0% | percentage phytotoxicity SETFA (Setaria faberi (SETFA); 1.25 g/ha): 0% | percentage phytotoxicity SETFA (Setaria faberi (SETFA); 5 g/ha): 43% | percentage phytotoxicity SETFA (Setaria faberi (SETFA); 10 g/ha): 72% | percentage phytotoxicity ABUTH ([5]; 0.625 g/ha): 6% | percentage phytotoxicity ABUTH ([5]; 2.5 g/ha): 21% | percentage phytotoxicity ABUTH ([5]; 5 g/ha): 58% and 55% | percentage phytotoxicity ABUTH ([5]; 10 g/ha): 60% | percentage phytotoxicity ECHCG ([6]; 0.625 g/ha): 0% | percentage phytotoxicity ECHCG ([6]; 1.25 g/ha): 0% | percentage phytotoxicity ECHCG ([6]; 2.5 g/ha): 8% | percentage phytotoxicity ECHCG ([6]; 5 g/ha): 39% | percentage phytotoxicity ECHCG ([6]; 10 g/ha): 64% | percentage phytotoxicity IPOHE ([7]; 0.625 g/ha): 13% | percentage phytotoxicity IPOHE ([7]; 2.5 g/ha): 53% and 48% | percentage phytotoxicity IPOHE ([7]; 5 g/ha): 63% | percentage phytotoxicity IPOHE ([7]; 10 g/ha): 74% | percentage phytotoxicity LOLPE (Lolium perenne (LOLPE); 0.625 g/ha): 0% and 3% | percentage phytotoxicity LOLPE (Lolium perenne (LOLPE); 1.25 g/ha): 0% and 3% | percentage phytotoxicity LOLPE (Lolium perenne (LOLPE); 2.5 g/ha): 3% and 1% | percentage phytotoxicity LOLPE (Lolium perenne (LOLPE); 10 g/ha): 43% and 35%

Nc1c(F)c(-c2ccc3cc[nH]c3c2F)nc(C(=O)O)c1Cl [B-VI]
percentage phytotoxicity CHEAL ([1]; 0.625 g/ha): 75% | percentage phytotoxicity CHEAL ([1]; 1.25 g/ha): 80% | percentage phytotoxicity CHEAL ([1]; 2.5 g/ha): 83% | percentage phytotoxicity CHEAL ([1]; 5 g/ha): 94% | percentage phytotoxicity CHEAL ([1]; 10 g/ha): 98% | percentage phytotoxicity AMARE ([2]; 0.625 g/ha): 83% | percentage phytotoxicity AMARE ([2]; 1.25 g/ha): 83% | percentage phytotoxicity AMARE ([2]; 2.5 g/ha): 90% | percentage phytotoxicity AMARE ([2]; 5 g/ha): 98% | percentage phytotoxicity AMARE ([2]; 10 g/ha): 100% | percentage phytotoxicity ALOMY ([3]; 0.625 g/ha): 0% | percentage phytotoxicity ALOMY ([3]; 1.25 g/ha): 0% | percentage phytotoxicity ALOMY ([3]; 2.5 g/ha): 10% | percentage phytotoxicity ALOMY ([3]; 5 g/ha): 8% | percentage phytotoxicity ALOMY ([3]; 10 g/ha): 25% | percentage phytotoxicity STEME (Stellaria media (STEME); 0.625 g/ha): 65% | percentage phytotoxicity STEME (Stellaria media (STEME); 1.25 g/ha): 75% | percentage phytotoxicity STEME (Stellaria media (STEME); 2.5 g/ha): 90% | percentage phytotoxicity STEME (Stellaria media (STEME); 5 g/ha): 93% | percentage phytotoxicity STEME (Stellaria media (STEME); 10 g/ha): 99% | percentage phytotoxicity DIGSA ([4]; 0.625 g/ha): 0% | percentage phytotoxicity DIGSA ([4]; 1.25 g/ha): 0% | percentage phytotoxicity DIGSA ([4]; 2.5 g/ha): 13% | percentage phytotoxicity DIGSA ([4]; 5 g/ha): 15% | percentage phytotoxicity DIGSA ([4]; 10 g/ha): 43% | percentage phytotoxicity SETFA (Setaria faberi (SETFA); 0.625 g/ha): 0% | percentage phytotoxicity SETFA (Setaria faberi (SETFA); 1.25 g/ha): 0% | percentage phytotoxicity SETFA (Setaria faberi (SETFA); 2.5 g/ha): 5% | percentage phytotoxicity SETFA (Setaria faberi (SETFA); 5 g/ha): 2% | percentage phytotoxicity SETFA (Setaria faberi (SETFA); 10 g/ha): 40% | percentage phytotoxicity ABUTH ([5]; 0.625 g/ha): 48% | percentage phytotoxicity ABUTH ([5]; 1.25 g/ha): 70% | percentage phytotoxicity ABUTH ([5]; 2.5 g/ha): 78% | percentage phytotoxicity ABUTH ([5]; 5 g/ha): 80% | percentage phytotoxicity ABUTH ([5]; 10 g/ha): 93% | percentage phytotoxicity ECHCG ([6]; 0.625 g/ha): 0% | percentage phytotoxicity ECHCG ([6]; 1.25 g/ha): 0% | percentage phytotoxicity ECHCG ([6]; 2.5 g/ha): 25% | percentage phytotoxicity ECHCG ([6]; 5 g/ha): 10% | percentage phytotoxicity ECHCG ([6]; 10 g/ha): 53% | percentage phytotoxicity IPOHE ([7]; 0.625 g/ha): 25% | percentage phytotoxicity IPOHE ([7]; 1.25 g/ha): 35% | percentage phytotoxicity IPOHE ([7]; 2.5 g/ha): 38% | percentage phytotoxicity IPOHE ([7]; 5 g/ha): 48% | percentage phytotoxicity IPOHE ([7]; 10 g/ha): 65% | percentage phytotoxicity LOLPE (Lolium perenne (LOLPE); 0.625 g/ha): 0% | percentage phytotoxicity LOLPE (Lolium perenne (LOLPE); 1.25 g/ha): 0% | percentage phytotoxicity LOLPE (Lolium perenne (LOLPE); 2.5 g/ha): 5% | percentage phytotoxicity LOLPE (Lolium perenne (LOLPE); 5 g/ha): 5% | percentage phytotoxicity LOLPE (Lolium perenne (LOLPE); 10 g/ha): 25%
